# Laboratory results as given in patent publication US5935995A, “Prodrugs for the therapy of tumors and inflammatory disorders” (Heochst Aktiengesellschaft, priority 1996, dated 1999).
# Like-named read-outs stand apart in the source and are kept apart here.
# How the values were obtained:
# LoVo cells = test: Cytotoxicity on LoVo tumor cells in the presence and absence of β-glucuronidase (MTT); type: cell-based
# [1] = Stability in solution in anhydrous DMSO; type: physicochemical
# Experimental: The prodrug F 373 is stable in solution in anhydrous DMSO. To investigate the cleavability, […] of F 373 solution (5 mg/ml in DMSO) were treated with 180 ml of 0.02 M phosphate buffer pH 7.2 and 10 ml of E. coli β-glucuronidase (Sigma) (330 mg/ml) and the mixture was incubated at 37° C. 25 ml batches were diluted with 225 ml of 0.1 M phosphate buffer pH 3.0 (85%) and acetonitrile (15%) and immediately analyzed with the aid of the following HPLC system.
smiles,measurement,setting,value
C=CC1CN2CCC1CC2C(OC(=O)N(C)c1cc([N+](=O)[O-])ccc1OC1OC(C(=O)O)C(O)C(O)C1O)c1ccnc2ccc(OC)cc12 (stereo not drawn) [F 391],IC50,"LoVo cells; Homo sapiens, LoVo, 65 h, read-out: IC50 with β-gluc.",113 µM
same,IC50,"LoVo cells; Homo sapiens, LoVo, 65 h, read-out: IC50 without β-gluc.",> 400 µM
CN(C(=O)OCCN(CCO)c1nc(N2CCCCC2)c2nc(N(CCO)CCO)nc(N3CCCCC3)c2n1)c1cc([N+](=O)[O-])ccc1O[C@@H]1O[C@H](C(=O)O)[C@@H](O)[C@H](O)[C@H]1O [F 392],IC50,"LoVo cells; Homo sapiens, LoVo cells, 65 h, with β-glucuronidase (50 mg/mil final concentration), read-out: IC50 with β-gluc.",49.5 µM
same,IC50,"LoVo cells; Homo sapiens, LoVo cells, 65 h, without β-glucuronidase, read-out: IC50 without β-gluc.",> 400 µM
"OCCN(CCO)c1nc(N2CCCCC2)c2nc(N(CCO)CCO)nc(N3CCCCC3)c2n1 [dipyridamole, reference compound]",IC50,"LoVo cells; Homo sapiens, LoVo, parent toxic compound tested alone, read-out: IC50 of the toxic compound tested alone",43 µM
"C=C[C@H]1C[N@@]2CC[C@H]1C[C@H]2[C@H](O)c1ccnc2ccc(OC)cc12 [quinine, reference compound]",IC50,"LoVo cells; Homo sapiens, LoVo, read-out: IC50 of the toxic compound tested alone",103 µM
"CN(C(=O)Oc1ccc(N(CCCl)CCCl)cc1)c1cc([N+](=O)[O-])ccc1O[C@@H]1O[C@H](C(=O)O)[C@@H](O)[C@H](O)[C@H]1O [F 373, 2-[N-Methyl-N-[4-(N,N'-bis(2-chloroethyl)amino)phenyloxycarbonyl]-amino]-4-nitrophenyl-β-D-glucuronic acid]",IC50,LoVo cells; read-out: IC50 with β-gluc.,6.3 µM
same,IC50,LoVo cells; read-out: IC50 without β-gluc.,> 500 µM
same,stability in solution,[1],stable
